The target of this test is T1, PDE10A2 (Homo sapiens, UniProt Q9Y233).
T1 construct: residues serine 449 to aspartate 789; His6 (H6) with thrombin cleavage site (N, cleaved yes); made in house; host or cells: E. coli BL21(DE3) pLysS
In words: PDE10A2 inhibition, Scintillation Proximity Assay (SPA). The format is biochemical. The settings on record: catalytic domain of human PDE10A2 (S449-D789), 0.25 nM enzyme, 50 nM cGMP + 50 nM [3H]-cGMP, 30 minutes at room temperature. The protocol:
The following tests were carried out in order to determine the activity of the compounds of the present invention. PDE10 activity of the compounds of the present invention is determined using a Scintillation Proximity Assay (SPA)-based method similar to the one previously described (Fawcett, L. et al., Proc Natl Acad Sci USA (2000) 97(7):3702-3707).
PDE10A1 and PDE10A2 are two splice variants of PDE10A. There are these 2 splice variants known, which differ in the N-terminal part of the protein. The catalytic domains of PDE10A1 and PDE10A2 are identical. The assay for PDE10A2 described below is therefore also representative for PDE10A1 and also for PDE10A in general.
The PDE10A2 assay was performed in a two step procedure in 96-well micro titer plates. The reaction mixture of 80 μl contained 20 mM HEPES/10 mM MgCl2/[…] (pH 7.5), 50 nM cGMP (Sigma) and 50 nM [^3H]-cGMP (GE Healthcare), 0.25 nM PDE10A2 with or without a specific test compound. A range of concentrations of the potential inhibitor was used to generate data for calculating the concentration of inhibitor resulting in 50% of the effect (e.g. IC50, the concentration of the competitor inhibiting PDE10A2 activity 50%). Non-specific activity was tested without the enzyme. The reaction was initiated by addition of the substrate solution (cGMP and [^3H]-cGMP) and allowed to progress for 30 minutes at room temperature. The reaction was terminated by transferring 50 μl of the reaction mixture into an OptiPlate (Perkin Elmer) containing 25 μl of YSi-SPA scintillation beads (GE Healthcare) in 18 mM zinc sulphate solution (stop reagent). After 1 h under shaking, the plate was centrifuged one minute at 1000 rpm to allow beads to settle. Afterwards, radioactive counts were measured on a Perkin Elmer TopCount Scintillation plate reader.
The catalytic domain of human PDE10A2, residues serine 449 to aspartate 789, was amplified by PCR using cDNA (Origene) and the oligonucleotides 5′-GGGGACAAGTTT […]-3′ (SEQ ID NO. 1) (with AttB1 recombination site in bold and thrombin protease cleavage site in italics) and 5′-[…] GCTG-3′ (SEQ ID NO. 2) (with AttB2 recombination site in bold) which conferred Gateway recombination sites. The PCR product was used in a BP recombination reaction with pDONR221 to generate pENTR Thm-PDE10A2(S449-D789) which was DNA sequence verified and then used in an LR recombination reaction with a Gateway modified version of pET11a. The resulting expression vector, placT7.2H6-(gw1)-Thm-PDE10A2(S449-D789) was DNA sequence confirmed and transformed into E. coli strain BL21(DE3) pLysS and recombinant protein was produced in TB medium at 20° C. by induction to a final IPTG concentration of 0.5 mM at an optical density of 1.0 at 600 nm for 20 hours. About 30% of the protein was in the soluble fraction of the cell homogenate. The protein was purified using sequential chromatography on Ni-NTA and HiTrapQ/HiTrapS. After thrombin digest at room temperature a HiTrapChelating/HiTrap Benzamindin chromatography removed impurities, uncleaved protein and thrombin. Final purification of PDE10A2(S449-D789) was performed on a Superdex 75 size exclusion chromatography equilibrated with 25 mM HEPES pH 8.4, 0.15 M NaCl. The yield of pure protein was 2 mg/liter of culture volume is relatively low. The purity of the protein was >95%, monomeric and monodisperse as shown by SDS-PAGE, HPLC and analytical ultracentrifugation.

T1 sequence (Q9Y233 715-1055): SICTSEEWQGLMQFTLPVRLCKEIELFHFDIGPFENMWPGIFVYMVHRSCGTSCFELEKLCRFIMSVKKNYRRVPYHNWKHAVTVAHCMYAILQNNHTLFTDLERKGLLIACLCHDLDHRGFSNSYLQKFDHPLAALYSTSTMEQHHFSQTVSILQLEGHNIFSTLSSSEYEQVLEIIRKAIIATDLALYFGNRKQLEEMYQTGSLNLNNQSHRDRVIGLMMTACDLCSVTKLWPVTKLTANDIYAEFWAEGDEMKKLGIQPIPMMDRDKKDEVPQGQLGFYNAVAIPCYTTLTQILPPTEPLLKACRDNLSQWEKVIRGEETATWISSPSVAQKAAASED

Usually IC50 stands for the concentration at which inhibition is half-maximal. Regarding `O=c1ccn(-c2ccc(OC(F)(F)F)cc2)nc1-c1ccnn1-c1ccnc2ccccc12` [Example 186, 3-(2-Quinolin-4-yl-2H-pyrazol-3-yl)-1-(4-trifluoromethoxy-phenyl)-1H-pyridazin-4-one], the IC50 came to 2 nM.
The value for `O=c1ccn(-c2cccc(OC(F)F)c2)nc1-c1ccnn1-c1ccccc1F` [Example 171, 1-(3-Difluoromethoxy-phenyl)-3-[2-(2-fluoro-phenyl)-2H-pyrazol-3-yl]-1H-pyridazin-4-one] was 46 nM.
The value for `C#Cc1cccc(-n2nccc2-c2nn(-c3ccccc3)ccc2=O)c1` [Example 32, 3-[2-(3-Ethynyl-phenyl)-2H-pyrazol-3-yl]-1-phenyl-1H-pyridazin-4-one] was 5 nM; that for `Cc1cc(-n2nccc2-c2nn(-c3cccc(S(C)(=O)=O)c3)ccc2=O)ccn1` [Example 90, 1-(3-Methanesulfonyl-phenyl)-3-[2-(2-methyl-pyridin-4-yl)-2H-pyrazol-3-yl]-1H-pyridazin-4-one] was 37 nM.
As to `Cc1cc(-n2nccc2-c2nn(-c3cccc(S(=O)(=O)N(C)C)c3)ccc2=O)ccn1` [Example 133, N,N-Dimethyl-3-{3-[2-(2-methyl-pyridin-4-yl)-2H-pyrazol-3-yl]-4-oxo-4H-pyridazin-1-yl}-benzenesulfonamide], the IC50 turned out to be 71 nM.
The value for `CCc1cnn(-c2ccccc2)c1-c1nn(-c2cccc(S(C)(=O)=O)c2)ccc1=O` [Example 89, 3-(4-Ethyl-2-phenyl-2H-pyrazol-3-yl)-1-(3-methanesulfonyl-phenyl)-1H-pyridazin-4-one] was 2270 nM.
Consider `O=c1ccn(-c2cccc(OC(F)(F)F)c2)nc1-c1ccnn1-c1ccc2c(c1)OCCO2` [Example 79, 3-[2-(2,3-Dihydro-benzo[1,4]dioxin-6-yl)-2H-pyrazol-3-yl]-1-(3-trifluoromethoxy-phenyl)-1H-pyridazin-4-one], for which the IC50 worked out at 7 nM.
Take `O=c1ccn(-c2cccc(OC(F)(F)F)c2)nc1-c1ccnn1-c1cccc(Cl)c1` [Example 48, 3-[2-(3-Chloro-phenyl)-2H-pyrazol-3-yl]-1-(3-trifluoromethoxy-phenyl)-1H-pyridazin-4-one]: the IC50 is 9 nM.
The value for `O=c1ccn(-c2cccc(S(=O)(=O)C(F)(F)F)c2)nc1-c1ccnn1-c1ccccc1` [Example 281, 3-(2-Phenyl-2H-pyrazol-3-yl)-1-(3-trifluoromethanesulfonyl-phenyl)-1H-pyridazin-4-one] was 17 nM.
The value for `CS(=O)(=O)c1ccc(-n2ccc(=O)c(-c3ccnn3-c3cccc(Cl)c3)n2)cc1` [Example 157, 3-[2-(3-Chloro-phenyl)-2H-pyrazol-3-yl]-1-(4-methanesulfonyl-phenyl)-1H-pyridazin-4-one] was 92 nM; that for `Cc1cc(-n2nccc2-c2nn(-c3cccc(OC(F)(F)F)c3)ccc2=O)c2cc(F)ccc2n1` [Example 177, 3-[2-(6-Fluoro-2-methyl-quinolin-4-yl)-2H-pyrazol-3-yl]-1-(3-trifluoromethoxy-phenyl)-1H-pyridazin-4-one] was 27 nM; that for `O=c1ccn(-c2cccc(OC(F)(F)F)c2)nc1-c1ccnn1-c1cccc2ccccc12` [Example 80, 3-(2-Naphthalen-1-yl-2H-pyrazol-3-yl)-1-(3-trifluoromethoxy-phenyl)-1H-pyridazin-4-one] was 3 nM.
As for `O=c1ccn(-c2ccccc2)nc1-c1ccnn1-c1ccc2c(c1)OCO2` [Example 1, 3-(2-Benzo[1,3]dioxol-5-yl-2H-pyrazol-3-yl)-1-phenyl-1H-pyridazin-4-one], the half-maximal inhibitory concentration (IC50) came to 63 nM.
Consider `NC(=O)c1cccc(-n2nccc2-c2nn(-c3cccc(OC(F)(F)F)c3)ccc2=O)c1` [Example 43, 3-{5-[4-Oxo-1-(3-trifluoromethoxy-phenyl)-1,4-dihydro-pyridazin-3-yl]-pyrazol-1-yl}-benzamide], for which the IC50 was 888 nM.
Turning to `O=C(OCCF)c1cccc(-n2ccc(=O)c(-c3ccnn3-c3cccc4ccccc34)n2)c1` [Example 295, 3-[3-(2-Naphthalen-1-yl-2H-pyrazol-3-yl)-4-oxo-4H-pyridazin-1-yl]-benzoic acid 2-fluoro-ethyl ester], the IC50 was 2 nM.
The value for `CC(=O)N(C)c1cccc(-n2ccc(=O)c(-c3ccnn3-c3ccccc3F)n2)c1` [Example 294, N-(3-{3-[2-(2-Fluoro-phenyl)-2H-pyrazol-3-yl]-4-oxo-4H-pyridazin-1-yl}-phenyl)-N-methyl-acetamide] was 6 nM; that for `O=c1ccn(-c2ccc(OC(F)(F)F)cc2)nc1-c1ccnn1-c1ccccc1F` [Example 34, 3-[2-(2-Fluoro-phenyl)-2H-pyrazol-3-yl]-1-(4-trifluoromethoxy-phenyl)-1H-pyridazin-4-one] was 40 nM; that for `CS(=O)(=O)c1cccc(-n2ccc(=O)c(-c3ccnn3-c3cc(F)ccc3F)n2)c1` [Example 87, 3-[2-(2,5-Difluoro-phenyl)-2H-pyrazol-3-yl]-1-(3-methanesulfonyl-phenyl)-1H-pyridazin-4-one] was 49 nM.
The value for `O=c1ccn(-c2ccc(OCC(F)(F)F)cc2)nc1-c1ccnn1-c1ccnc2ccccc12` [Example 259, 3-(2-Quinolin-4-yl-2H-pyrazol-3-yl)-1-[4-(2,2,2-trifluoro-ethoxy)-phenyl]-1H-pyridazin-4-one] was 1 nM; that for `O=c1ccn(-c2ccc(OC(F)(F)F)cc2)nc1-c1ccnn1-c1cccc2c1OC(F)(F)O2` [Example 145, 3-[2-(2,2-Difluoro-benzo[1,3]dioxol-4-yl)-2H-pyrazol-3-yl]-1-(4-trifluoromethoxy-phenyl)-1H-pyridazin-4-one] was 72 nM; that for `CC(=O)Nc1cccc(-n2ccc(=O)c(-c3ccnn3-c3ccccc3F)n2)c1` [Example 292, N-(3-{3-[2-(2-Fluoro-phenyl)-2H-pyrazol-3-yl]-4-oxo-4H-pyridazin-1-yl}-phenyl)-acetamide] was 21 nM.
Consider `O=c1ccn(-c2cccc(OC(F)(F)F)c2)nc1-c1ccnn1-c1ccncc1` [Example 27, 3-(2-Pyridin-4-yl-2H-pyrazol-3-yl)-1-(3-trifluoromethoxy-phenyl)-1H-pyridazin-4-one], for which the IC50 stood at 117 nM.
For `CS(=O)(=O)c1cccc(-n2ccc(=O)c(-c3ccnn3-c3cccc(C#N)c3)n2)c1` [Example 94, 3-{5-[1-(3-Methanesulfonyl-phenyl)-4-oxo-1,4-dihydro-pyridazin-3-yl]-pyrazol-1-yl}-benzonitrile], the IC50 turned out to be 55 nM.
The value for `O=c1ccn(-c2ccc(OCC(F)(F)F)cc2)nc1-c1ccnn1-c1ccccc1F` [Example 255, 3-[2-(2-Fluoro-phenyl)-2H-pyrazol-3-yl]-1-[4-(2,2,2-trifluoro-ethoxy)-phenyl]-1H-pyridazin-4-one] was 5 nM.
On to `CS(=O)(=O)c1ccc(-n2ccc(=O)c(-c3ccnn3-c3ccc(F)cc3)n2)cc1` [Example 153, 3-[2-(4-Fluoro-phenyl)-2H-pyrazol-3-yl]-1-(4-methanesulfonyl-phenyl)-1H-pyridazin-4-one], for which the 50% inhibitory concentration (IC50) stood at 67 nM.
With `O=c1ccn(-c2cccc(Cl)c2)nc1-c1ccnn1-c1ccc(Cl)c2ccccc12` [Example 244, 3-[2-(4-Chloro-naphthalen-1-yl)-2H-pyrazol-3-yl]-1-(3-chloro-phenyl)-1H-pyridazin-4-one], the IC50 was determined as 46 nM.
The value for `O=c1ccn(-c2ccc(OC(F)F)cc2)nc1-c1ccnn1-c1cccc(F)c1` [Example 100, 1-(4-Difluoromethoxy-phenyl)-3-[2-(3-fluoro-phenyl)-2H-pyrazol-3-yl]-1H-pyridazin-4-one] was 105 nM.

The record behind these values is patent US8178538B2, “Pyridazinones” (Hoffmann-La Roche Inc., priority 2008, dated 2012).
